Assay [1] concerns P388. Put plainly: Cytotoxicity against mouse P388 cells in in vitro assay. The format is functional. As to conditions: read-out: ED50 (the source's name).
The subject of assay [2] is P388. Put plainly: Cytotoxicity against mouse P388 cells in in vivo assay. It counts as functional, organism-based.

Converted amounts (≈) assume the structure as drawn. The source made the active and inactive calls. The rule behind the calls is not given here.

With `CCC/C=C/C=C/C=C/C(=O)O[C@@H]1[C@@H](C)[C@@]2(O)[C@@H](C=C(CO)C[C@]3(O)C(=O)C(C)=C[C@@H]23)[C@@H]2C(C)(C)[C@]12OC(C)=O`, in the assay on P388 [1], the EC50 was 0.0022 µg/mL (≈ 0.00397 µM).

On to `CCCCCCCCCCCCCCCCCCCCCC(=O)OCC(COC(=O)CCCCCCCCCCCCCCCCCCCCC)OC(=O)/C=C/c1ccc(O)c(OC)c1`, for which, in the assay on P388 [1], the EC50 is 0.8 µg/mL (≈ 0.876 µM). In addition, the result in the assay with P388 [2] was inactive.

The record behind these values is ChEMBL document CHEMBL1151374, “Plant anticancer agents. XIX Constituents of Aquilaria malaccensis” (1981).
